# From US6428968B1, “Combined therapy with a chemotherapeutic agent and an oncolytic virus for killing tumor cells in a subject” (The Trustees of the University of Pennsylvania, priority 1999, dated 2002)
# Values joined by “and” are separate entries in the source; they are usually repeats but may differ in a detail not shown here. Equal entries are not always repeated.
# How the values were obtained:
# [1] = tested on: H460 (large cell carcinoma) cells; assay: In vitro cell viability assay, H460 cells; format: cell-based, human; settings: cell line H460; HSV-1716 at an MOI of 0.1, mitomycin C at 0.1 micromolar
# Description: Individual chemotherapeutic agents were then added to selected wells.
# Each treatment experiment was performed at least twice.
# [2] = tested on: H460 tumors; assay: In vivo xenograft flank model; parameters: species or system SCID mice; settings: 22 days after injection of H460 cells
# Description: The combined effects of mitomycin C and HSV-1716 using NSCLC tumors was assessed in vivo as follows. Cells of line H460 were implanted subcutaneously in the flanks of severe combined immunodeficient (SCID) mice. […] HSV-1716 was injected directly into individual tumors at a dose of 4×10^6 plaque forming units (pfu) in 200 microliters of medium. Control mice were injected with medium alone. Twenty-four hours later, 0.17 milligrams per kilogram body weight mitomycin C or an equivalent amount of PBS was administered to separate groups of HSV-treated and control mice. Tumor volume was estimated in all mice at regular intervals. Tumor volume in cubic millimeters was estimated using the formula
# where TLmm was tumor length in millimeters and TWmm was tumor width in millimeters. Tumor growth curves were generated using the estimated values for tumor volume. After a period of 3-4 weeks, mice were sacrificed and their tumors were weighed.
# In order to assess the oncolytic effect of mitomycin C in combination with HSV-1716, a murine xenograft model was used. […] These doses were designated ‘sufficient doses.’ H460 tumor cells were injected into the flanks of SCID mice. […] At that time, about 4×10^6 pfu of HSV-1716 or an equivalent volume of culture medium was injected into individual tumors. […]
# [3] = tested on: HSV-1716 in H460 cells; assay: One step growth curve, H460 cells (black plaque assay); format: cell-based, herpes simplex virus type 1; settings: for burst size of HSV-1716: H460, MOI 0.1
# Description: H460 cells were incubated overnight in six-well plates at a density of about 300,000 cells per well under standard culture condition. Following this incubation, the cells were infected with HSV-1716 at an MOI of 0.1 pfu. In a parallel experiment with five different experimental arms, the following procedures were performed. In the first and second arms, the cells were incubated in the presence of 0.1 micromolar mitomycin C or an equivalent additional volume of culture medium. Mediun or medium containing mitomycin C was added to the wells for 3 hours, either immediately before (in the first arm) or immediately following (in the second arm) infection of the cells with HSV-1716. In the other three arms, medium containing 0.1, 1.0, or 3.0 micromolar mitomycin C was added to the wells for 48 hours following infection of the cells with HSV-1716.
# Cells were harvested from individual wells 1, 6, 19, 24, or 48 hours following infection. Cells were harvested by scraping cells from the walls of their well into the medium contained within the well. Harvested cells were stored at −80° C. Cell samples were titered by black plaque assay using baby hamster kidney cell (BHK) monolayers as described (Kucharczuk et al., 1997, Cancer Res. 57:466-471).
# In order to examine what effect mitomycin C might have on viral replication, one step growth curve experiments were performed. H460 cells were infected with HSV-1716 at an MOI of 0.1, and then 0.1 or 1.0 or 3.0 micromolar mitomycin C was added to the cell culture medium. At selected times, cells were harvested and titered by black plaque assay as described herein. […] Addition of 1.0 or 3.0 micromolar mitomycin C for 48 hours after infection reduced burst size (13.7 and 0.2, respectively).
# [4] = tested on: HSV-1716 in A549 cells; assay: One step growth curve, A549 cells; format: cell-based, herpes simplex virus type 1; settings: cell line A549; low dose mitomycin C (0.1 micromolar)
structure (smiles),measurement,setting,value
CO[C@@]12[C@H](COC(N)=O)C3=C(C(=O)C(C)=C(N)C3=O)N1C[C@@H]1N[C@@H]12 [mitomycin C],cell survival,[1],96.7%
same,final mean tumor burden (tumor weight),"[2]; HSV-1716 4×10^6 pfu intratumoral day 7, mitomycin C 0.17 mg/kg i.v. day 8, n=14",1.122±0.070 grams
same,reduction of tumor burden relative to the control,"[2]; HSV-1716 4×10^6 pfu intratumoral, mitomycin C 0.17 mg/kg i.v.",20.2% and 21.8%
same,burst size of HSV-1716,[3]; 1.0 micromolar mitomycin C for 48 hours after infection,13.7
same,burst size of HSV-1716,[3]; 3.0 micromolar mitomycin C for 48 hours after infection,0.2
same,burst size of HSV-1716,[3]; post-treatment with 0.1 micromolar mitomycin C for 3 hours,57.1
same,burst size of HSV-1716,[3]; post-treatment with 0.1 micromolar mitomycin C for 48 hours,53.3
same,burst size of HSV-1716,[3]; pre-treatment with 0.1 micromolar mitomycin C for 3 hours,42.1
same,effect on burst size of HSV-1716,"[3]; cell line H460, low dose mitomycin C (0.1 micromolar)",Neither Augmented nor Reduced
same,effect on burst size of HSV-1716,[4],Neither Augmented nor Reduced
